Assay results taken from patent US4940713A, “Substituted glutamic acids” (Burroughs Wellcome Co., priority 1988, dated 1990).
Read-outs that look alike come from different tables or passages of the source.

Experiments:
Streptococcus faecium = experiment: Activity against Streptococcus faecium; format: cell-based; details: in words
Spiroplasma citri = experiment: Activity Against Spiroplasma citri, Sensitivity Test; format: cell-based; details: in words
Description: Frozen broth cultures are diluted to a predetermined titre of 100 color changing units for the test. Organisms are grown in Difco PPLO broth base with added serum, glucose, phenol red, ampicillin, thallium acetate and yeast extract. Incubation is at 32° C. Incubation with varying levels of the test compound in the above medium are performed in well plates and an amount of Spiroplasma citri cells is added that will produce a color change by a fixed time of growth. The lowest concentration of compound that fails to produce a color change or gives a two day delay in color change indicates minimum inhibitory concentration.

[1] = system: MCF-7 breast adenocarcinoma; experiment: Cytotoxicity Assay, MCF-7 (MTT dye reduction assay); format: cell-based; details: 72 hours
Description: Cells and Medium: MCF-7 breast adenocarcinoma, obtained from the American Type Culture Collection (ATCC) is grown in RPMI 1640 medium supplemented with 10 nM calcium leucovorin instead of folic acid as the folate source, 10% dialyzed fetal calf serum, penicillin, streptomycin and sodium pyruvate (110 μg/ml).
Cytotoxicity Assay: Cells are seeded into 96 well plates using a Perkin Elmer Pro/pette. MCF-7 cells are seeded at 15,000 cells per well in 150 μl of medium. Prior to the addition of drugs, cultures were incubated for 24 hours at 37°. Compounds were added at 2× concentration in 150 μl of medium and each concentration was assayed in triplicate. Cultures were incubated for 72 hours in a 37° humidified incubator at 5% CO2. Inhibition of cell growth was measured using the MTT dye reduction assay.
MTT Dye Reduction Assay: Cell dilutions for a standard curve were prepared from a 72 hour log-phase culture. Serial dilutions were seeded in triplicate in 96 well plates and incubated at 37° for 1 hour. MTT (3-(4,5-dimethylthiazol-2-yl)-2,5-diphenyltetrazolium bromide) was dissolved in phosphate buffered saline at 5 mg/ml and sonicated for 30 seconds. Using the Perkin Elmer Pro/pette, 200 μl of medium was removed and 100 μl of MTT added to the wells of the standard curve and test plates. Suspension cultures were spun for 5 minutes at 1000 rpm before removing medium from the wells. Plates were incubated for 1 hour at 37° on a platform shaker. Following this incubation, 100 μl of medium was removed from the wells and 100 μl of DMSO added to each well. The plates were sonicated for approximately 10 seconds to solubilize the precipitated formazan dye. The absorbance of each well was measured using a Titertek Multiskan MC microtiter plate reader at 570 nm with a reference wavelength of 750 nm.

Lactobacillus casei = experiment: Activity against Lactobacillus casei; format: cell-based; details: in words
yellow fever virus = details: in words
mouse L cells [2] = system: mouse L cells
mouse L cells [3] = experiment: Reversal of Cytotoxic Activity on mouse L cells
[4] = Stability on extended exposure to light; format: physicochemical; details: white powder

## Nc1nc(N)c(CCCNc2ccc(C(=O)N[C@@H](CCC(=O)O)C(=O)O)cc2)c(=O)[nH]1 [Example 1, N-[4-[3-(2,4-diamino-1,6-dihydro-6-oxo-5-pyrimidinyl)propylamino]benzoyl]-L-glutamic acid]
Streptococcus faecium
  activity against Streptococcus faecium: possess activity against certain bacterial organisms
Spiroplasma citri
  activity against Spiroplasma citri: activity against the mycoplasma, Spiroplasma citri
[1]
  inhibiting the growth of MCF-7 cells: active in inhibiting the growth of MCF-7 cells
Lactobacillus casei
  activity against Lactobacillus casei: possess activity against certain bacterial organisms
Yellow fever virus
  activity against yellow fever virus: some activity against yellow fever virus

## O=c1[nH]cnc2nc[nH]c12 [hypoxanthine]
Mouse L cells [2]
  reversal of the cytotoxicity of the compound of Example 1: able to reverse the cytotoxicity of the compound of Example 1
  reversal of the cytotoxicity of the compound of Example 3: able to reverse the cytotoxicity of the compound of Example 3

## Nc1nc2c(c(=O)[nH]1)N(C=O)C(CNc1ccc(C(=O)N[C@@H](CCC(=O)O)C(=O)O)cc1)CN2 (stereo partly shown) [calcium leucovorin]
Mouse L cells [2]
  reversal of the cytotoxicity of the compound of Example 1: able to reverse the cytotoxicity of the compound of Example 1
  reversal of the cytotoxicity of the compound of Example 3: able to reverse the cytotoxicity of the compound of Example 3

## Nc1nc(N)c(CCCN(C=O)c2ccc(C(=O)N[C@@H](CCC(=O)O)C(=O)O)cc2)c(=O)[nH]1 [Example 3, N-[4-[3-(2,4-Diamino-1,6-dihydro-6-oxo-5-pyrimidinyl)-N-formylpropylamino]benzoyl]-L-glutamic acid]
Spiroplasma citri
  activity against Spiroplasma citri: activity against the mycoplasma, Spiroplasma citri
[1]
  inhibiting the growth of MCF-7 cells: active in inhibiting the growth of MCF-7 cells
Yellow fever virus
  activity against yellow fever virus: some activity against yellow fever virus

## NC(=O)c1ncn([C@@H]2O[C@H](COP(=O)(O)O)[C@@H](O)[C@H]2O)c1N [AICAR, 5-aminoimidazole-4-carboxamide ribonucleotide]
Mouse L cells [3]
  reversal of the cytotoxicity of the compound of Example 3: able to reverse the cytotoxicity of the compound of Example 3

## CN(CCCc1c(N)nc(N)[nH]c1=O)c1ccc(C(=O)N[C@@H](CCC(=O)O)C(=O)O)cc1 [Example 2, N-[4-[3-(2,4-diamino-1,6-dihydro-6-oxo-5-pyrimidinyl)-N-methylpropylamino]benzoyl]-L-glutamic acid]
Spiroplasma citri
  activity against Spiroplasma citri: activity against the mycoplasma, Spiroplasma citri
[1]
  inhibiting the growth of MCF-7 cells: active in inhibiting the growth of MCF-7 cells

## CN(CCc1c(N)nc(N)[nH]c1=O)c1ccc(C(=O)N[C@@H](CCC(=O)O)C(=O)O)cc1 [Example 5, N-[4-[2-(2,4-diamino-1,6-dihydro-6-oxo-5-pyrimidinyl)ethyl-N-methylamino]benzoyl]-L-glutamic acid]
[4]
  appearance upon extended exposure to light: became tan upon extended exposure to light
